According to ChEMBL document CHEMBL1130806, “Enhanced potency of perfluorinated thalidomide derivatives for inhibition of LPS-induced tumor necrosis factor-alpha production is associated with a change of mechanism of action” (Bioorg Med Chem Lett, 1998):

Key:
Format in all cases: functional, cell-based
THP-1 = experiment: Inhibition of LPS-induced Tumor necrosis factor-alpha production (TNF-alpha) in THP-1 cells; conditions: Homo sapiens
[1] = Compound was tested for the inhibition of production of IL-1 beta in human monocytes
[2] = Compound was tested for the inhibition of production of IL-6 in human monocytes

Q: Which IC50 (THP-1) does the source give for `C[C@@H](c1ccccc1)N1C(=O)c2c(F)c(F)c(F)c(F)c2C1=O` here?
A: 367 nM

Q: With `C[C@]1(N2C(=O)c3c(F)c(F)c(F)c(F)c3C2=O)CCC(=O)NC1=O` as the compound, how does the IC50 (THP-1) read?
A: 443 nM

Q: Which IC50 (THP-1) does the source give for `C[C@@]1(N2C(=O)c3c(F)c(F)c(F)c(F)c3C2=O)CCC(=O)NC1=O` here?
A: 494 nM

Q: Which IC50 (THP-1) does the source give for `COC(=O)C[C@H](c1ccc(OC)c(OC)c1)N1C(=O)c2c(F)c(F)c(F)c(F)c2C1=O` here?
A: 250 nM

Q: For `CN1C(=O)c2c(F)c(F)c(F)c(F)c2C1=O`, which IC50 (THP-1) is on record?
A: 413 nM

Q: Which IC50 (THP-1) does the source give for `O=C1CCC(N2C(=O)c3c(F)c(F)c(F)c(F)c3C2=O)C(=O)N1` (stereo unspecified) here?
A: 490 nM

Q: And the IC50 [1]?
A: 400 nM

Q: And the IC50 [2]?
A: 700 nM

Q: With `COC(=O)C[C@@H](c1ccc(OC)c(OC)c1)N1C(=O)c2c(F)c(F)c(F)c(F)c2C1=O` as the compound, how does the IC50 (THP-1) read?
A: 313 nM

Q: With `C[C@H](c1ccccc1)N1C(=O)c2c(F)c(F)c(F)c(F)c2C1=O` as the compound, how does the IC50 (THP-1) read?
A: 434 nM

Q: For `O=C1c2c(F)c(F)c(F)c(F)c2C(=O)N1c1ccccc1`, which IC50 (THP-1) is on record?
A: 425 nM

Q: With `CC(c1ccccc1)N1C(=O)c2c(F)c(F)c(F)c(F)c2C1=O` (racemic) as the compound, how does the IC50 (THP-1) read?
A: 415 nM

Q: With `CC1(N2C(=O)c3c(F)c(F)c(F)c(F)c3C2=O)CCC(=O)NC1=O` (racemic) as the compound, how does the IC50 (THP-1) read?
A: 378 nM

Q: Which IC50 (THP-1) does the source give for `COC(=O)CC(c1ccc(OC)c(OC)c1)N1C(=O)c2c(F)c(F)c(F)c(F)c2C1=O` (racemic) here?
A: 249 nM

Q: What about the IC50 [1] of the same compound?
A: 400 nM

Q: And the IC50 [2]?
A: 300 nM
